Test results taken from ChEMBL document CHEMBL3421598, “Structure-activity relationships of the prototypical TRPM8 agonist icilin” (Bioorg Med Chem Lett, 2015).

Assays:
Type in all cases: cell-based
[1] = molecular target: Transient receptor potential cation channel subfamily M member 8 (Rattus norvegicus) (UniProt Q8R455); test: Agonist activity at rat TRPM8 expressed in HEK293 cells assessed as induction of intracellular Ca2+ level by Fluo-4-AM dye based spectrofluorimetry relative to 4 uM ionomycin
Chain of Transient receptor potential cation channel subfamily M member 8 (Rattus norvegicus) (Q8R455 whole entry, looked up): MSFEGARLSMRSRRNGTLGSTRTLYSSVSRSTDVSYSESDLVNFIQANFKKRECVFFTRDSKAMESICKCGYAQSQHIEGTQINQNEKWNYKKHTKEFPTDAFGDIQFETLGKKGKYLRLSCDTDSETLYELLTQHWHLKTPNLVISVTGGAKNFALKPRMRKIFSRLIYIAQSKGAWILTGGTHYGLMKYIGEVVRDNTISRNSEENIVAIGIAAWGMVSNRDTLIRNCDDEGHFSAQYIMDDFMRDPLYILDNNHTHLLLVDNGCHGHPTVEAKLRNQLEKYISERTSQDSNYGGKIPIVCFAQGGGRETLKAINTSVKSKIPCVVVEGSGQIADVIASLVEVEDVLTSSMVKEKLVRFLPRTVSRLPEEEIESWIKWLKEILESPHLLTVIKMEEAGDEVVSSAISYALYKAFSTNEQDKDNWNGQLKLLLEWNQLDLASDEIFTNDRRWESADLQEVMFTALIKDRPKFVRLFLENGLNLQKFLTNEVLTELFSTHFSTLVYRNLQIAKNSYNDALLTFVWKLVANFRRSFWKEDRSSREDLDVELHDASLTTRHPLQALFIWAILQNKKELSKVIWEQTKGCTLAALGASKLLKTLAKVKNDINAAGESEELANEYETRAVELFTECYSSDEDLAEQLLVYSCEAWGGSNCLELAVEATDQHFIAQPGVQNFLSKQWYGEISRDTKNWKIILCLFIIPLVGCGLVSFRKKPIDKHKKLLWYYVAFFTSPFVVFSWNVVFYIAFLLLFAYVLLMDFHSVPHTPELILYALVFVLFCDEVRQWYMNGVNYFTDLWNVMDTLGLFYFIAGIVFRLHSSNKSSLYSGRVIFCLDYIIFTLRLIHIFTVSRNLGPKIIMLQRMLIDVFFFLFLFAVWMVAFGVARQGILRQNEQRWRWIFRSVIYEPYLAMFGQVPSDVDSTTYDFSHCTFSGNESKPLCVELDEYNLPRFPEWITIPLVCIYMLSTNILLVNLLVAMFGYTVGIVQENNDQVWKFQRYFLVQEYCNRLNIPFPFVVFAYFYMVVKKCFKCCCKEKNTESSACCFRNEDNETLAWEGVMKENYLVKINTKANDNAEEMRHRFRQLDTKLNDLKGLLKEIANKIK

[2] = molecular target: T1, Transient receptor potential cation channel subfamily M member 8 (Rattus norvegicus, UniProt Q8R455); test: Antagonist activity against rat TRPM8 expressed in HEK293 cells assessed as inhibition of icilin-induced intracellular Ca2+ level pre-treated 5 mins before icilin stimulation by Fluo-4-AM dye based spectrofluorimetry
T1 sequence (Q8R455 whole entry): as the sequence (Q8R455 whole entry, looked up) above

[3] = molecular target: Transient receptor potential cation channel subfamily V member 1 (Homo sapiens, UniProt Q8NER1); test: Antagonist activity against human TRPV1 expressed in HEK293 cells assessed as inhibition of capsaicin-induced intracellular Ca2+ level pre-treated 5 mins before capsaicin stimulation by Fluo-4-AM dye based spectrofluorimetry
Chain of Transient receptor potential cation channel subfamily V member 1 (Q8NER1 whole entry): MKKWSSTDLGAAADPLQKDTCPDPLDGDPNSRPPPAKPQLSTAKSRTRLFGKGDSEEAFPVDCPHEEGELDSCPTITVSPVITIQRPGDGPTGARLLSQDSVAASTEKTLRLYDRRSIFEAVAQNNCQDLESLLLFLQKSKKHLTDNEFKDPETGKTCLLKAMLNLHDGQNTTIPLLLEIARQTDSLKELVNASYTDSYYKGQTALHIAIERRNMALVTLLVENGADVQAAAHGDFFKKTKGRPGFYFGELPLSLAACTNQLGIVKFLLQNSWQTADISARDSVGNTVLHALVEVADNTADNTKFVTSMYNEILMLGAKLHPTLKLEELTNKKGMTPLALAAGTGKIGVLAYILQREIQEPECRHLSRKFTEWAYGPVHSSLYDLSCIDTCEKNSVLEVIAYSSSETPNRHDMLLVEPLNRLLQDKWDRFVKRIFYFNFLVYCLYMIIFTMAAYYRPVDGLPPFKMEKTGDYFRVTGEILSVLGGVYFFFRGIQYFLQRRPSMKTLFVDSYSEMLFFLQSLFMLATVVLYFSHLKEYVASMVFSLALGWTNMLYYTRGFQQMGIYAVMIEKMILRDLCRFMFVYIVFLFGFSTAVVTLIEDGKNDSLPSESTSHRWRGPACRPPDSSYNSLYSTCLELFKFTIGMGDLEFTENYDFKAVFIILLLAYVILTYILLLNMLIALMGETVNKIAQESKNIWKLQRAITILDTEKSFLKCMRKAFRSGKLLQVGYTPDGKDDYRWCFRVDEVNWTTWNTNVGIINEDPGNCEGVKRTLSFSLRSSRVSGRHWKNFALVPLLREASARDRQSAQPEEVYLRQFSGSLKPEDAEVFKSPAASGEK

[4] = molecular target: T1, Transient receptor potential cation channel subfamily M member 8; test: Agonist activity at rat TRPM8 expressed in HEK293 cells assessed as induction of intracellular Ca2+ level by Fluo-4-AM dye based spectrofluorimetry

Structure (SMILES): O=C1NC(c2cccc([N+](=O)[O-])c2)=CCN1c1ccccc1F
- Efficacy [1]: < 10%
- IC50 [2]: 8.7 µM

Structure (SMILES): Cc1ccc(O)c(N2CC=C(c3ccc([N+](=O)[O-])cc3)NC2=O)c1
- Efficacy [1]: < 10%
- IC50 [2]: 16.9 µM

Structure (SMILES): COc1ccccc1N1CC=C(c2ccc([N+](=O)[O-])cc2)NC1=O
- Efficacy [1]: < 10%
- IC50 [2]: 11.4 µM

Structure (SMILES): O=C1NC(c2cccc([N+](=O)[O-])c2)=CCN1c1ccc(O)cc1
- Efficacy [1]: < 10%
- IC50 [2]: 11.3 µM

Structure (SMILES): O=C(/C=C/c1cccc([N+](=O)[O-])c1)Nc1cccc(O)c1
- IC50 [3]: > 10 µM
- IC50 [2]: > 10 µM

Structure (SMILES): Cc1ccc(N2CC=C(c3cccc([N+](=O)[O-])c3)NC2=O)c(O)c1
- EC50 [4]: 1.2 µM
- Efficacy [1]: 46%
- IC50 [2]: 1.4 µM

Structure (SMILES): O=C(/C=C/c1cccc([N+](=O)[O-])c1)Nc1ccccc1Br
- IC50 [3]: > 10 µM
- IC50 [2]: 1.5 µM

Structure (SMILES): O=C1NC(c2cccc([N+](=O)[O-])c2)=CCN1c1cccc(Cl)c1
- EC50 [4]: 1.5 µM
- Efficacy [1]: 45.6%
- IC50 [2]: 4.4 µM

Structure (SMILES): Cc1cccc(NC(=O)/C=C/c2cccc([N+](=O)[O-])c2)c1
- IC50 [3]: > 10 µM
- IC50 [2]: 0.4 µM

Structure (SMILES): COc1cccc(-n2cc(-c3cccc([N+](=O)[O-])c3)[nH]c2=O)c1
- Efficacy [1]: < 10%
- IC50 [2]: 33.9 µM

Structure (SMILES): COc1cccc(N2CC=C(c3cccc([N+](=O)[O-])c3)N(C)C2=O)c1
- Efficacy [1]: < 10%
- IC50 [2]: 68.4 µM

Structure (SMILES): COc1ccccc1N1CC2=C(NC1=O)c1ccccc1CC2
- Efficacy [1]: < 10%
- IC50 [2]: 6.6 µM

Structure (SMILES): O=C1NC(c2cccc([N+](=O)[O-])c2)=CCN1c1ccccc1CO
- EC50 [4]: 5 µM
- Efficacy [1]: 20.4%
- IC50 [2]: 12 µM

Structure (SMILES): COc1cccc(NC(=O)/C=C/c2cccc([N+](=O)[O-])c2)c1
- IC50 [3]: 2.1 µM
- IC50 [2]: 1.1 µM

Structure (SMILES): O=C1NC2=C(CCc3ccccc32)CN1c1ccccc1O
- Efficacy [1]: < 10%
- IC50 [2]: 5.7 µM

Structure (SMILES): Cc1ccccc1NC(=O)/C=C/c1cccc([N+](=O)[O-])c1
- IC50 [3]: > 10 µM
- IC50 [2]: 2 µM

Structure (SMILES): NC(=O)c1ccccc1N1CC=C(c2ccc([N+](=O)[O-])cc2)NC1=O
- Efficacy [1]: < 10%
- IC50 [2]: 11.4 µM

Structure (SMILES): O=C1NC(c2cccc([N+](=O)[O-])c2)=CCN1c1ccccc1Cl
- EC50 [4]: 0.89 µM
- Efficacy [1]: 41.8%
- IC50 [2]: 0.95 µM

Structure (SMILES): O=C(/C=C/c1cccc([N+](=O)[O-])c1)Nc1ccccc1Cl
- IC50 [3]: > 10 µM
- IC50 [2]: 1.7 µM

Structure (SMILES): O=C(CCc1cccc([N+](=O)[O-])c1)Nc1cccc(I)c1
- IC50 [3]: 4.3 µM
- IC50 [2]: 0.43 µM

Structure (SMILES): COc1ccccc1N1CC=C(c2cccc([N+](=O)[O-])c2)NC1=O
- EC50 [4]: 1.1 µM
- Efficacy [1]: 18.5%
- IC50 [2]: 8.3 µM

Structure (SMILES): O=C(/C=C/c1cccc([N+](=O)[O-])c1)Nc1cccc(Br)c1
- IC50 [3]: 2.5 µM
- IC50 [2]: 0.14 µM

Structure (SMILES): O=C1NC(c2cccc([N+](=O)[O-])c2)=CCN1c1cccc(CO)c1
- Efficacy [1]: < 10%
- IC50 [2]: 15.7 µM

Structure (SMILES): O=C1NC(c2cccc([N+](=O)[O-])c2)=CCN1c1cccc(O)c1
- EC50 [4]: 1.7 µM
- Efficacy [1]: 62%
- IC50 [2]: 1.5 µM

Structure (SMILES): O=C1NC2=C(CCc3ccc([N+](=O)[O-])cc32)CN1c1ccccc1O
- Efficacy [1]: < 10%
- IC50 [2]: 18.1 µM

Structure (SMILES): COc1cccc(N2CC=C(c3cccc([N+](=O)[O-])c3)NC2=O)c1
- EC50 [4]: 0.13 µM
- Efficacy [1]: 57.5%
- IC50 [2]: 0.24 µM

Structure (SMILES): COc1ccccc1NC(=O)/C=C/c1cccc([N+](=O)[O-])c1
- IC50 [3]: 10.7 µM
- IC50 [2]: 1.8 µM

Structure (SMILES): CS(=O)(=O)Nc1ccccc1NC(=O)/C=C/c1cccc([N+](=O)[O-])c1
- IC50 [3]: > 10 µM
- IC50 [2]: > 10 µM

Structure (SMILES): O=C(/C=C/c1cccc([N+](=O)[O-])c1)Nc1cccc(CO)c1
- IC50 [3]: 6.1 µM
- IC50 [2]: 6.5 µM

Structure (SMILES): O=C1NC(c2cccc([N+](=O)[O-])c2)=CCN1c1cccc(I)c1
- EC50 [4]: 0.3 µM
- Efficacy [1]: 30.9%
- IC50 [2]: 0.47 µM

Structure (SMILES): O=C1NC(c2cccc([N+](=O)[O-])c2)=CCN1c1ccccc1Br
- EC50 [4]: 0.62 µM
- Efficacy [1]: 48.2%
- IC50 [2]: 1.03 µM

Structure (SMILES): O=C1NC(c2cccc([N+](=O)[O-])c2)=CCN1c1ccccc1I
- EC50 [4]: 1.2 µM
- Efficacy [1]: 52.7%
- IC50 [2]: 3.2 µM

Structure (SMILES): O=C1NC(c2ccc([N+](=O)[O-])cc2)=CCN1c1cccc(O)c1
- Efficacy [1]: < 10%
- IC50 [2]: 10.9 µM

Structure (SMILES): O=C(/C=C/c1cccc([N+](=O)[O-])c1)Nc1ccccc1I
- IC50 [3]: > 10 µM
- IC50 [2]: 1.05 µM

Structure (SMILES): Cc1ccc(O)c(N2CC=C(c3cccc([N+](=O)[O-])c3)NC2=O)c1
- EC50 [4]: 0.14 µM
- Efficacy [1]: 69.4%
- IC50 [2]: 0.26 µM

Structure (SMILES): CC(C)c1ccccc1NC(=O)/C=C/c1cccc([N+](=O)[O-])c1
- IC50 [3]: > 10 µM
- IC50 [2]: 6.1 µM

Structure (SMILES): CCNC(=O)c1ccccc1N1CC=C(c2cccc([N+](=O)[O-])c2)NC1=O
- Efficacy [1]: < 10%
- IC50 [2]: 22 µM

Structure (SMILES): O=C1NC(c2cccc([N+](=O)[O-])c2)=CCN1c1ccccc1O [ICILLIN]
- Efficacy [1]: 75.1%
- IC50 [2]: 0.058 µM

Structure (SMILES): O=C1NC2=C(CCc3c2cccc3[N+](=O)[O-])CN1c1ccccc1O
- Efficacy [1]: < 10%
- IC50 [2]: 3.1 µM

Structure (SMILES): O=C(/C=C/c1cccc([N+](=O)[O-])c1)Nc1cccc(I)c1
- IC50 [3]: 1.2 µM
- IC50 [2]: 0.073 µM

Structure (SMILES): O=C(/C=C/c1cccc([N+](=O)[O-])c1)Nc1ccccc1O
- IC50 [3]: > 10 µM
- IC50 [2]: 1.9 µM

Structure (SMILES): O=C1NC(c2ccc([N+](=O)[O-])cc2)=CCN1c1ccc(O)cc1
- Efficacy [1]: < 10%
- IC50 [2]: 11.4 µM

Structure (SMILES): O=c1[nH]c(-c2cccc([N+](=O)[O-])c2)cn1-c1ccccc1O
- Efficacy [1]: < 10%
- IC50 [2]: 3.5 µM

Structure (SMILES): CC1=C(c2cccc([N+](=O)[O-])c2)NC(=O)N(c2ccccc2O)C1
- EC50 [4]: > 10 µM
- Efficacy [1]: 10.8%
- IC50 [2]: 14.3 µM

Structure (SMILES): NC(=O)c1ccccc1N1CC=C(c2cccc([N+](=O)[O-])c2)NC1=O
- EC50 [4]: 15.4 µM
- Efficacy [1]: 47.2%
- IC50 [2]: 8.3 µM

Structure (SMILES): O=C1NC(c2ccc([N+](=O)[O-])cc2)=CCN1c1ccccc1O
- Efficacy [1]: < 10%
- IC50 [2]: 5.7 µM

Structure (SMILES): O=C(/C=C/c1cccc([N+](=O)[O-])c1)Nc1cccc(Cl)c1
- IC50 [3]: 7.1 µM
- IC50 [2]: 0.17 µM

Structure (SMILES): COc1ccc(N2CC=C(c3cccc([N+](=O)[O-])c3)NC2=O)cc1
- Efficacy [1]: < 10%
- IC50 [2]: 40 µM

Structure (SMILES): O=C(/C=C/c1cccc([N+](=O)[O-])c1)Nc1ccccc1CO
- IC50 [3]: > 10 µM
- IC50 [2]: > 10 µM

Structure (SMILES): CC(C)(C)c1cccc(NC(=O)/C=C/c2cccc([N+](=O)[O-])c2)c1
- IC50 [3]: > 10 µM
- IC50 [2]: 0.6 µM

Structure (SMILES): CS(=O)(=O)Nc1cccc(-n2cc(-c3cccc([N+](=O)[O-])c3)[nH]c2=O)c1
- Efficacy [1]: < 10%
- IC50 [2]: 26 µM

Structure (SMILES): CS(=O)(=O)Nc1cccc(N2CC=C(c3cccc([N+](=O)[O-])c3)NC2=O)c1
- Efficacy [1]: < 10%
- IC50 [2]: 46.4 µM

Structure (SMILES): CC(C)c1cccc(NC(=O)/C=C/c2cccc([N+](=O)[O-])c2)c1
- IC50 [3]: 4.1 µM
- IC50 [2]: 0.17 µM

Structure (SMILES): O=C1NC(c2cccc([N+](=O)[O-])c2)=CCN1c1cccc(Br)c1
- EC50 [4]: 0.6 µM
- Efficacy [1]: 47%
- IC50 [2]: 1.5 µM
